The record followed here is ChEMBL document CHEMBL2157948, “Design, synthesis, and structure-activity-relationship of phenyl imidazoles as potent Smoothened antagonists” (Bioorg Med Chem Lett, 2012).

Each structure is given as a SMILES string. Converted amounts (≈) assume the structure as drawn.

For series [1], the target named is T1, Protein smoothened (Mus musculus, UniProt P56726). As to the kind of experiment: Antagonist activity at Smo in mouse TM3 cells expressing Hh12 assessed as inhibition of 1 nM Ag1.5-induced Gli expression incubated for 30 mins prior to Ag1.5-induction measured after 48 hrs by luciferase reporter gene assay. Type of series: functional, cell-based. A general note: A reporter such as luciferase makes a cellular process visible.

Series [2] is described as follows: Plasma protein binding in rat. It is filed as ADME, cell-free. As to conditions: read-out: PPB (converted).
A short description of series [3]: Mean residence time in mouse. Type of series: ADME, organism-based. The note with it: in vivo.
Series [4] in a line: Oral bioavailability in rat at 3 to 30 mg/kg. As to conditions: in vivo. Type of series: ADME, organism-based.
Series [5] can be described thus: Volume of distribution at steady state in mouse. Type of series: ADME, organism-based. As to conditions: in vivo, read-out: Vdss.
Series [6] in a line: Oral bioavailability in mouse. The note with it: in vivo. Type of series: ADME, organism-based.
The nature of series [7]: Ratio of drug uptake in brain to plasma in mouse. Type of series: ADME, organism-based. As to conditions: read-out: BPR.
Series [8] in a line: Clearance in mouse. The note with it: in vivo. Type of series: ADME, organism-based.
The target of series [9] is T1, Protein smoothened. As to the kind of experiment: Antagonist activity at mouse Smo expressed in CHO cells assessed as inhibition of BODIPY-cyclopamine binding after 4 hrs by fluorescence assay. Type of series: cell-based.
The nature of series [10]: Plasma protein binding in human. It is filed as ADME, cell-free. The note with it: read-out: PPB (converted).
Series [11] can be described thus: Volume of distribution at steady state in rat at 3 to 30 mg/kg. It is filed as ADME, organism-based. More on the design: dose 3-30 mg/kg. As to conditions: in vivo, read-out: Vdss.
For series [12], the system named is Mus musculus. As to the kind of experiment: Clearance in po dosed mouse. The note with it: in vivo. Type of series: ADME, organism-based.
A short description of series [13]: Permeability of the compound by PAMPA assay. It is filed as ADME. For orientation: The PAMPA barrier holds no transporters, so it reflects passive diffusion.
Series [14] in a line: Mean residence time in rat at 3 to 30 mg/kg. Type of series: ADME, organism-based. More on the design: dose 3-30 mg/kg. The note with it: in vivo.
Series [15] can be described thus: Clearance in rat at 3 to 30 mg/kg. Type of series: ADME, organism-based. Set-up: dose 3-30 mg/kg. The note with it: in vivo.
Series [16] can be described thus: Aqueous solubility of the compound at pH 7. It is filed as physicochemical.
The target of series [17] is Protein smoothened (Homo sapiens, UniProt Q99835). As to the kind of experiment: Antagonist activity at human Smo expressed in CHO cells assessed as inhibition of BODIPY-cyclopamine binding after 4 hrs by fluorescence assay. Type of series: cell-based.
The target of series [18] is T1, Protein smoothened. As to the kind of experiment: Antagonist activity at Smo in mouse TM3 cells expressing Hh12 assessed as inhibition of 25 nM Ag1.5-induced Gli expression incubated for 30 mins prior to Ag1.5-induction measured after 48 hrs by luciferase reporter gene assay. It is filed as functional, cell-based.
Series [19] deals with Mus musculus. As to the kind of experiment: Dose normalised AUC in po dosed mouse. As to conditions: in vivo. It is filed as ADME, organism-based.
Series [20] in a line: Aqueous solubility of the compound at pH 1. It is filed as physicochemical.

T1 sequence (P56726 whole entry): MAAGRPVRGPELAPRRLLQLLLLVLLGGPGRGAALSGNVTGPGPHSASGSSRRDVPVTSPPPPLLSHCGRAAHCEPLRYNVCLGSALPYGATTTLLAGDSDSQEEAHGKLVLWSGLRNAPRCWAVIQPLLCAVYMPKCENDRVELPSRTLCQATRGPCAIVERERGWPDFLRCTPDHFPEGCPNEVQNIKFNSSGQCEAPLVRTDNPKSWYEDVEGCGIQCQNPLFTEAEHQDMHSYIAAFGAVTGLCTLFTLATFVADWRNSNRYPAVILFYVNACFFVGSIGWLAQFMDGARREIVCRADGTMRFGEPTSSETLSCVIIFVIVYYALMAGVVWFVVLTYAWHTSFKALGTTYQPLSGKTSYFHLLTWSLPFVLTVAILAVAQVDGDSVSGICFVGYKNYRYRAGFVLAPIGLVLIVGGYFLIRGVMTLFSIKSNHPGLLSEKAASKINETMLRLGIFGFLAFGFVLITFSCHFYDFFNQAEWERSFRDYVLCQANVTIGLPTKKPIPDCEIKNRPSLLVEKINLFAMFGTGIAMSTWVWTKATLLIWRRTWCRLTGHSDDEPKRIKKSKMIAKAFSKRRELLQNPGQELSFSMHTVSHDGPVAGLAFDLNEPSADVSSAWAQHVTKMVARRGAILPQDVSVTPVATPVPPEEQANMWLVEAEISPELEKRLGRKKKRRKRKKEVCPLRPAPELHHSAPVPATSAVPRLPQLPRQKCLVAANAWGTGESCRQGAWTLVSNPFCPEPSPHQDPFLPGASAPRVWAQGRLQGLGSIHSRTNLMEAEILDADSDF
Chain of Protein smoothened (Homo sapiens, UniProt Q99835) (Q99835 whole entry): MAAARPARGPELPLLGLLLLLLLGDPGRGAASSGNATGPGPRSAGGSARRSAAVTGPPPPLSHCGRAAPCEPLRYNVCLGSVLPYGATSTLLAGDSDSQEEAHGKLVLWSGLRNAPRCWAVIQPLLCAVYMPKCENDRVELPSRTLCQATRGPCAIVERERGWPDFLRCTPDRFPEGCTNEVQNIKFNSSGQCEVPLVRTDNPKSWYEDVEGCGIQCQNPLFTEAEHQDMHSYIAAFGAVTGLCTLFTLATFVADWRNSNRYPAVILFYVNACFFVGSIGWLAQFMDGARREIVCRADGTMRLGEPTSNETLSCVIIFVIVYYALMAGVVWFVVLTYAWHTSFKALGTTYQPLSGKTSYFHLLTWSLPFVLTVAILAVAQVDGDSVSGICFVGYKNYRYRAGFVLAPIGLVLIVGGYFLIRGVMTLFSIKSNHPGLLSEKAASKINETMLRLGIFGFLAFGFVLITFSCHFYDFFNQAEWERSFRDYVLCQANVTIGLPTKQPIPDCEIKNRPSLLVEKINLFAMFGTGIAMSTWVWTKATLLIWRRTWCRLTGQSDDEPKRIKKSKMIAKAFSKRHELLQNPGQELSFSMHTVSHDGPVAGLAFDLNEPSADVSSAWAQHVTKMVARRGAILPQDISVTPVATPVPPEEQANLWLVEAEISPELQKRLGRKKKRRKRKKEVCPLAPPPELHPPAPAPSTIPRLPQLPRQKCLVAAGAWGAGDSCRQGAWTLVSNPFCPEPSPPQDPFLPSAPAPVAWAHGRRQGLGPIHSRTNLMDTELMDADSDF

Regarding `C[C@@H]1CN(c2ccc3c(Nc4ccc(Cl)c(-c5ncc(-c6ccccc6)[nH]5)c4)nccc3n2)CCO1`, the IC50 was 0.6 nM in series [1], 1.6 nM in series [9], 4 nM in series [17] and 11 nM in [18]. Further, the figures for the fraction unbound in series [2] and in series [10] were 0.015 and 0.039, respectively. For the same compound, the MRT in [3] stood at 0.56 h; in series [14], 3.33 h. Besides, the bioavailability is 53% in series [4] and 82% in series [6]. Further, the Vd turned out to be 1.07 L/kg in series [5] and 1 L/kg in series [11]. For the same compound, in [7], the Kp is 0.4. The clearance in [8] turned out to be 32 mL/min/kg; in series [12], 32 mL/min/kg; in series [15], 5 mL/min/kg. Also, in series [13], the permeability entry is “permeable”. The figures for the solubility in [16] and in series [20] were < 1 µg/mL and 93 µg/mL (≈ 187 µM), respectively. In [19], this compound yielded an AUC/dose of 881 nM·h.

Turning to `C[C@@H]1CN(c2ccc3c(Nc4ccc(Cl)c(-c5nc(-c6ccccc6)c[nH]5)c4)nccc3n2)C[C@H](C)O1`, the IC50 in series [1] turned out to be 0.2 nM; in series [18], 6 nM. In [12], the clearance is 33.1 mL/min/kg. This compound yielded an AUC/dose in series [19] of 268 nM·h.

Turning to `C[C@@H]1CN(c2cnc3c(Nc4ccc(Cl)c(-c5nc(-c6ccccc6)c[nH]5)c4)cccc3n2)C[C@H](C)O1`, the results for the IC50 in series [1] and in series [18] were 3 nM and 35 nM, respectively.

Turning to `C[C@@H]1CN(c2ccc3c(Nc4ccc(Cl)c(-c5ncc(-c6ccccc6)[nH]5)c4)cccc3n2)C[C@H](C)O1`, the IC50 in [1] came out at 0.3 nM; in [18], 5 nM. The same compound gave an AUC/dose in series [19] of 492 nM·h.

As for `C[C@@H]1CN(c2ccc3c(Nc4ccc(Cl)c(-c5nc(-c6ccccc6)c[nH]5)c4)ccnc3c2)C[C@H](C)O1`, the IC50 came out at 0.4 nM in [1] and 8 nM in series [18]. In [19], this compound had an AUC/dose of 0 nM·h.

The compound `C[C@@H]1CN(c2ccc3c(Nc4ccc(Cl)c(-c5ncc(-c6ccccc6)[nH]5)c4)nccc3c2)C[C@H](C)O1` registered a clearance in series [12] of 24.7 mL/min/kg. The compound also showed an AUC/dose in series [19] of 499 nM·h.

In the case of `O=S1(=O)CCN(c2ccc3c(Nc4ccc(Cl)c(-c5nc(-c6ccccc6)c[nH]5)c4)nccc3c2)CC1`, the IC50 in [1] was determined as 2 nM; in series [18], 31 nM.

Consider `C[C@@H]1CN(c2ccc3c(Nc4ccc(Cl)c(-c5ncc(-c6ccccc6)[nH]5)c4)nccc3c2)CCO1`, for which the IC50 in [1] was found to be 0.1 nM; in series [18], 1.6 nM. Also, the clearance in series [12] was found to be 30.9 mL/min/kg. This compound gave an AUC/dose in [19] of 533 nM·h.

With `Clc1ccc(Nc2nccc3ccccc23)cc1-c1ncc(-c2ccccc2)[nH]1`, the IC50 turned out to be 19 nM in series [1] and 157 nM in series [18].

For `Clc1ccc(Nc2nccc3cc(N4CCOCC4)ccc23)cc1-c1ncc(-c2ccccc2)[nH]1`, the IC50 is 0.1 nM in [1] and 2.6 nM in series [18]. This compound came in with an AUC/dose in [19] of 101 nM·h.

In the case of `Cc1ccc(NC(=O)c2ccc(N3CCOCC3)cc2)cc1-c1nc(-c2ccccc2)c[nH]1`, in series [1], the IC50 turned out to be 0.2 nM.

By IC50 is commonly meant the point on the concentration scale where inhibition reaches its midpoint. For orientation: MRT means the average time that molecules of a dose stay in the body. In general, bioavailability refers to dose-corrected exposure relative to a reference, in per cent. A lower bioavailability goes with poor availability. The term solubility denotes how much of the substance goes into solution per volume. Higher therefore signals much dissolved substance.
